Reference: patent US20220018828A1, “METHODS AND KIT FOR ASSAYING LYTIC POTENTIAL OF IMMUNE EFFECTOR CELLS” (INSERM (INSTITUT NATIONAL DE LA SANTÉ ET LA RECHERCHE …, priority 2018, published 2022)

Tested on: melanoma cells (D10)
Experiment: Membrane turnover assay (FM1-43 uptake by FACS in CTL/target cell conjugates)
Assay type: cell-based, human
Conditions: D10 cells loaded with antigenic peptide, pretreated 2 h with 50 μM BAPTA-AM, alone or after 5 min conjugation with CTL; compared with untreated cells
Experimental: Loading of target cells: Target cells were left unpulsed or pulsed with 10 μM antigenic peptide during 2 h at 37° C./5% CO2. Cells were washed three times, re-suspended at 15×10^3 to 30×10^3 cells in 25 μl RPMI/5% FCS/HEPES and transferred to a 96-well U-bottom plate.
In some experiments, D10 cells were pretreated (2 h) or not with 50 μM BAPTA-AM (ThermoFisher Scientific).
CTL staining: CTL were stained with 10 μM CellTrace Violet (CTV, ThermoFisher Scientific) for 30 min at 37° C./5% CO2, washed three times and re-suspended at 30×10^3 to 60×10^3 cells per 25 μl RPMI/5% FCS/HEPES.
Conjugation of CTL and target cells: 25 μl of CTL (previously stained with CTV) were added in wells containing pulsed or unpulsed target cells at 2:1 CTL/target cell ratio. Target cells were previously added to three 96-U-bottom plates (one plate per time point: 2, 5 or 15 minutes). A pre-diluted solution of FM1-43 (ThermoFisher Scientific) was prepared at 20 μg/ml. 50 μl of this solution were added to wells containing in 50 μl the cells of interest to have a final concentration of 10 μg/ml. The FM1-43 solution was added to wells at the same time of CTL. Cells were pelleted during 1 minute at 455 g and incubated at 37° C./5% CO2 for 2, 5 or 15 minutes.
At the end of the incubation time, 100 μl cold FACS buffer (PBS 1% FBS 1% HS 0.1% azide) supplemented with 0.5 mM EDTA were added to each well on ice. […]

CC(=O)OCOC(=O)CN(CC(=O)OCOC(C)=O)c1ccccc1OCCOc1ccccc1N(CC(=O)OCOC(C)=O)CC(=O)OCOC(C)=O [BAPTA-AM]
FM1-43 uptake (fluorescence intensity) in melanoma cells: decrease of FM1-43 uptake
